Values quoted from earlier work, collected in patent publication US20090226374A1, “ANAPHYLATOXINS FOR DETECTING CLINICAL CONDITIONS” (Health Aide, Inc., priority 2003, published 2009).
Where two headings read alike, the source gives them in different places. Marks after values point to notes of the source that are not given here. Where no end group is shown, it is not given here. [ ]: non-standard residue; d: D form. The star is where a group is joined. Fmoc = O=C(OCC1c2ccccc2-c2ccccc21)*; Ahx = NCCCCCC(=O)O

How the values were obtained:
[1] = assay not given
guinea pig ileum = conditions: for Relative molar activity (%): pentapeptide L-G-L-A-R (C3a 73-77) = 100; for Relative molar activity (%) / Relative Act. %: guinea pig ileum contraction; for Relative Act. %: natural human C3a (1-77) = 100
guinea pig platelet = guinea pig platelet aggregation
[2] = natural factor C3a (1-77) = 100
[3] = natural C3a of each species; human C3a = 100

W-W-Ahx-Y-R-A-S-K-L-G-L-A-R (WW[Ahx]YRASKLGLAR) [Peptide C6]
Potency relative to C3a (57-77), % ([1]; Table 1E): 603%

L-G-A-A-R [Peptide Code 12]
Relative molar activity (%) (guinea pig ileum): <1.4%

R-R-R-Y-A-S-K-L-G-L-A-R (RRRYASKLGLAR) [Peptide B13]
Potency relative to C3a (57-77), % (guinea pig platelet): 50%

Fmoc-A-R-A-A-L-G-L-A-R (Fmoc-ARAALGLAR) [Peptide D3]
Potency relative to C3a (57-77), % ([1]; Table 1F): 37%

L-V-L-A-R [Peptide 10]
Relative Act. % (guinea pig ileum): 1.2% | Relative molar activity (%) (guinea pig ileum): 10%

L-G-L-P-R [Peptide 19]
Relative molar activity (%) (guinea pig ileum): 3.5%

W-Ahx-Y-A-S-K-L-G-L-A-R (W[Ahx]YASKLGLAR) [Peptide C4]
Potency relative to C3a (57-77), % ([1]; Table 1E): 22%

L-G-L-S-R [Peptide 21]
Relative molar activity (%) (guinea pig ileum): 0.7%

W-W-G-G-Y-R-A-S-A-L-G-L-A-R (WWGGYRASALGLAR) [Peptide D10]
Potency relative to C3a (57-77), % ([1]; Table 1F): 181%

L-G-L-E-R [Peptide 23]
Relative molar activity (%) (guinea pig ileum): <2.6%

Fmoc-K-K-Y-R-A-S-K-L-G-L-A-R (Fmoc-KKYRASKLGLAR) [Peptide D7]
Potency relative to C3a (57-77), % ([1]; Table 1F): 279%

Y-R-A-S-K-L-G-L-A-R (YRASKLGLAR) [Peptide B3]
Potency relative to C3a (57-77), % (guinea pig platelet): 55%

Fmoc-I-R-R--R-Y-A-S-K-L-G-L-A-R (Fmoc-IRRRYASKLGLAR) [Peptide B18]
Potency relative to C3a (57-77), % (guinea pig platelet): 50%

Fmoc-Ahx-Y-A-S-K-L-G-L-A-R ({Fmoc-Ahx}-YASKLGLAR) [Peptide C3]
Potency relative to C3a (57-77), % ([1]; Table 1E): 22%

Fmoc-R-A-A-A-L-G-L-A-R (Fmoc-RAAALGLAR) [Peptide D4]
Potency relative to C3a (57-77), % ([1]; Table 1F): 79%

G-I-G-G-Y-R-K-S-A-L-G-L-A-R (GIGGYRKSALGLAR) [Peptide B10]
Potency relative to C3a (57-77), % (guinea pig platelet): 41%

H-Cys-Asn-Tyr-Ile-Thr-Glu-Leu-Arg-Arg-Gln-His-Ala-Arg-Ala-Ser-His-Leu-Gly-Leu-Ala-Arg-OH (H-CNYITELRRQHARASHLGLAR-OH) [C3a-(57-77)]
Relative molar activity (%) [2]: >20* %

Fmoc-R-A-A-R-L-G-L-A-R (Fmoc-RAARLGLAR) [Peptide D5]
Potency relative to C3a (57-77), % ([1]; Table 1F): 61%

H-Ala-Ser-His-Leu-Gly-Leu-Ala-Arg-OH (H-ASHLGLAR-OH) [C3a-(70-77)]
Relative molar activity (%) [2]: 2.0%

I-G-G-G-Y-R-K-S-A-L-G-L-A-R (IGGGYRKSALGLAR) [Peptide B11]
Potency relative to C3a (57-77), % (guinea pig platelet): 16%

L-G-M-A-R [Peptide 15]
Relative Act. % (guinea pig ileum): 0.25% | Relative molar activity (%) (guinea pig ileum): 2.1%

R-R-Y-A-S-K-L-G-L-A-R (RRYASKLGLAR) [Peptide B12]
Potency relative to C3a (57-77), % (guinea pig platelet): 18%

L-A-L-A-R [Peptide 8]
Relative Act. % (guinea pig ileum): 0.59% | Relative molar activity (%) (guinea pig ileum): 270%

Ahx-Y-A-S-K-L-G-L-A-R ([Ahx]YASKLGLAR) [Peptide C2]
Potency relative to C3a (57-77), % ([1]; Table 1E): 13%

L-Q-L-A-R [Peptide 12]
Relative Act. % (guinea pig ileum): <0.003% | Relative molar activity (%) (guinea pig ileum): <5.5%

Y-A-S-K-L-G-L-A-R (YASKLGLAR) [Peptide C1]
Potency relative to C3a (57-77), % ([1]; Table 1E): 3.4%

Fmoc-G-G-Y-R-A-S-K-L-G-L-A-R (Fmoc-GGYRASKLGLAR) [Peptide D8]
Potency relative to C3a (57-77), % ([1]; Table 1F): 227%

W-G-G-Y-R-A-S-K-L-G-L-A-R (WGGYRASKLGLAR) [Peptide B5]
Potency relative to C3a (57-77), % (guinea pig platelet): 99%

F-G-L-A-R [Peptide 3]
Relative Act. % (guinea pig ileum): 1.1% | Relative molar activity (%) (guinea pig ileum): 140%

L-G-L-A-R (LGLAR) [Peptide Code 5]
Potency relative to C3a (57-77), % (guinea pig ileum; asterisk: based on guinea pig ileal assay): 0.2* % | Relative Act. % (guinea pig ileum): 5.9% | Relative molar activity (%) (guinea pig ileum): 100%

Fmoc-W-W-R-R-R-Y-A-S-K-L-G-L-A-R (Fmoc-WWRRRYASKLGLAR) [Peptide B19]
Potency relative to C3a (57-77), % (guinea pig platelet): 53%

L-G-L-G-R [Peptide 22]
Relative molar activity (%) (guinea pig ileum): <5.8%

L-G-F-A-R [Peptide 16]
Relative Act. % (guinea pig ileum): 1.0% | Relative molar activity (%) (guinea pig ileum): <1.5%

W-Ahx-Y-S-H-K-G-M-L-L-G-R (W[Ahx]YSHKGMLLGR) [Peptide C10]
Potency relative to C3a (57-77), % ([1]; Table 1E): 1.2%

W-W-R-R-R-Y-A-S-K-L-G-L-A-R (WWRRRYASKLGLAR) [Peptide B16]
Potency relative to C3a (57-77), % (guinea pig platelet): 296%

R-Y-A-S-K-L-G-L-A-R (RYASKLGLAR) [Peptide B2]
Potency relative to C3a (57-77), % (guinea pig platelet): 7.0%

W-W-G-G-Y-R-K-S-A-L-G-L-A-R (WWGGYRKSALGLAR) [Peptide D11]
Potency relative to C3a (57-77), % ([1]; Table 1F): 259%

W-R-R-R-Y-A-S-K-L-G-L-A-R (WRRRYASKLGLAR) [Peptide B14]
Potency relative to C3a (57-77), % (guinea pig platelet): 66%

Fmoc-Ahx-Y-S-H-K-G-M-L-L-G-R ({Fmoc-Ahx}-YSHKGMLLGR) [Peptide C9]
Potency relative to C3a (57-77), % ([1]; Table 1E): 0.8%

L-G-V-A-R [Peptide 17]
Relative Act. % (guinea pig ileum): <0.005% | Relative molar activity (%) (guinea pig ileum): <1.1%

Fmoc-Ahx-Y-R-A-S-K-L-G-L-A-R ({Fmoc-Ahx}-YRASKLGLAR) [Peptide C5]
Potency relative to C3a (57-77), % ([1]; Table 1E): 112% | Potency relative to C3a (57-77), % ([1]; Table 1F): 112%

I-R-R-R-Y-A-S-K-L-G-L-A-R (IRRRYASKLGLAR) [Peptide B15]
Potency relative to C3a (57-77), % (guinea pig platelet): 99%

Fmoc-A-A-R-A-L-G-L-A-R (Fmoc-AARALGLAR) [Peptide D2]
Potency relative to C3a (57-77), % ([1]; Table 1F): 41%

M-G-L-A-R [Peptide 6]
Relative Act. % (guinea pig ileum): 0.005% | Relative molar activity (%) (guinea pig ileum): 50%

Fmoc-R-R-Y-R-A-S-K-L-G-L-A-R (Fmoc-RRYRASKLGLAR) [Peptide D6]
Potency relative to C3a (57-77), % ([1]; Table 1F): 176%

L-G-I-A-R [Peptide 14]
Relative Act. % (guinea pig ileum): 0.8% | Relative molar activity (%) (guinea pig ileum): 10%

Y-G-L-A-R [Peptide 2]
Relative Act. % (guinea pig ileum): 2.3% | Relative molar activity (%) (guinea pig ileum): 160%

Fmoc-A-A-A-R-L-G-L-A-R (Fmoc-AAARLGLAR) [Peptide D1]
Potency relative to C3a (57-77), % ([1]; Table 1F): 66%

I-I-G-G-Y-R-A-S-K-L-G-L-A-R (IIGGYRASKLGLAR) [Peptide B8]
Potency relative to C3a (57-77), % (guinea pig platelet): 50%

W-W-G-G-Y-R-P-S-A-L-G-L-A-R (WWGGYRPSALGLAR) [Peptide D12]
Potency relative to C3a (57-77), % ([1]; Table 1F): 252%

H-Trp-Trp-Gly-Lys-Lys-Tyr-Arg-Ala-Ser-Lys-Leu-Gly-Leu-Ala-Arg-OH (H-WWGKKYRASKLGLAR-OH) [Peptide E7]
Relative molar activity (%) [2]: >100** %

L-G-L-Q-R [Peptide 20]
Relative molar activity (%) (guinea pig ileum): 2.8%

Ahx-Y-S-H-K-G-M-L-L-G-R ([Ahx]YSHKGMLLGR) [Peptide C8]
Potency relative to C3a (57-77), % ([1]; Table 1E): 0.4%

W-W-G-G-Y-R-A-S-K-L-G-L-A-R (WWGGYRASKLGLAR) [Peptide B6]
Potency relative to C3a (57-77), % (guinea pig platelet): 259%

W-I-G-G-Y-R-A-S-K-L-G-L-A-R (WIGGYRASKLGLAR) [Peptide B7]
Potency relative to C3a (57-77), % (guinea pig platelet): 118%

Fmoc-Y-R-A-S-K-L-G-L-A-R (Fmoc-YRASKLGLAR) [Peptide B4]
Potency relative to C3a (57-77), % (guinea pig platelet): 121%

H-Arg-Gln-His-Ala-Arg-Ala-Ser-His-Leu-Gly-Leu-Ala-Arg-OH (H-RQHARASHLGLAR-OH) [C3a-(65-77)]
Relative molar activity (%) [2]: 2.5%

Y-S-H-K-G-M-L-L-G-R (YSHKGMLLGR) [Peptide C7]
Potency relative to C3a (57-77), % ([1]; Table 1E): 0.5%

A-G-L-A-R [Peptide 7]
Relative Act. % (guinea pig ileum): <0.001% | Relative molar activity (%) (guinea pig ileum): 20%

C3a (1-77): Natural human C3a anaphylatoxin (1-77), the natural factor
Potency % [3]: 100% | Relative molar activity (%) [2]: 100% | Relative Act. % (guinea pig ileum): 100%

L-L-L-A-R [Peptide 11]
Relative Act. % (guinea pig ileum): 0.023% | Relative molar activity (%) (guinea pig ileum): 10%

I-G-L-A-R [Peptide 4]
Relative Act. % (guinea pig ileum): 0.8% | Relative molar activity (%) (guinea pig ileum): 100%

Fmoc-R-R-R-Y-A-S-K-L-G-L-A-R (Fmoc-RRRYASKLGLAR) [Peptide B17]
Potency relative to C3a (57-77), % (guinea pig platelet): 261%

W-W-G-G-Y-R-a-S-A-L-G-L-A-R (WWGGYR[dA]SALGLAR) [Peptide D13]
Potency relative to C3a (57-77), % ([1]; Table 1F): 118%

L-S-L-A-R [Peptide 9]
Relative Act. % (guinea pig ileum): 2.0% | Relative molar activity (%) (guinea pig ileum): 55%

L-E-L-A-R [Peptide 13]
Relative Act. % (guinea pig ileum): 2.0% | Relative molar activity (%) (guinea pig ileum): <2.4%

V-G-L-A-R [Peptide 5]
Relative Act. % (guinea pig ileum): 0.2% | Relative molar activity (%) (guinea pig ileum): 90%

I-I-G-G-Y-R-K-S-A-L-G-L-A-R (IIGGYRKSALGLAR) [Peptide B9]
Potency relative to C3a (57-77), % (guinea pig platelet): 37%

FmocW-R-R-R-Y-A-S-K-L-G-L-A-R (Fmoc-WRRRYASKLGLAR) [Peptide B20]
Potency relative to C3a (57-77), % (guinea pig platelet): 70%
